# Experiments:
# [1] = test system: albino New Zealand white rabbits; settings: conclusion from retinal blood flow in rabbits
# Procedure: Retinal blood flow rate in the major temporal vein in the right eye of albino New Zealand white rabbits is measured at pre-administration baseline, as well as post-administration of Alphagan® P as drops, post-administration of a composition comprising brimonidine and a penetration enhancer as a mist, and post-administration of a composition in accordance with the principles of the present invention comprising brimonidine or a salt thereof and being devoid of a penetration enhancer as a mist. […] In this instrument, the measuring laser beam is locked onto the target blood vessel during eye movements through an eye-tracking feedback and control system. Doppler-shifted laser light scattered from a retinal vessel is analyzed to determine centerline blood velocity.
# Venous blood flow, which is known to be directly correlated to arterial blood flow, is measured, since retinal veins have a larger diameter than retinal arteries, facilitating better locking of the measuring laser beams onto the target vessel. […]
# The beam from a red 675-nm diode laser is used for velocity measurement, emitted from a fundus camera-like measuring head. The Doppler-shifted light scattered from the flowing blood cells in the target vessel is detected simultaneously in two directions, separated by a fixed angle. […]
# Following administration of the composition, the blood flow velocity in the same veins is measured.
# Glaucoma patients = settings: normal tension glaucoma patients; cited from earlier work
Structure (SMILES),efficacy compared between ways of administration or compositions [1],maintenance of retinal blood flow homeostasis with changes in posture (Glaucoma patients)
"Brc1c(NC2=NCCN2)ccc2nccnc12 [brimonidine, 5-Bromo-N-(4,5-dihydro-1H-imidazol-2-yl) quinoxalin-6-amine]",as effective as administration in the form of eye-drops,maintained retinal blood flow homeostasis
CC(C)OC(=O)CCC/C=C\C[C@@H]1[C@@H](CC[C@@H](O)CCc2ccccc2)[C@H](O)C[C@@H]1O [latanoprost],,not
